Holding throughout (type): in vivo
The test system of test [1] is larvae of the mustard beetle (Phaedon cochleariae). In words: Comparative Phaedon cochleariae spray test (PHAECO). Particulars: 168 h, 7 dat, read-out: % efficacy. The method, then:
(§1) Solvent: 14 parts by weight of dimethylformamide
(§2) Emulsifier: alkylaryl polyglycol ether
(§3) To produce a suitable active compound formulation, 1 part by weight of active compound is dissolved with the specified parts by weight of solvent and made up to the desired concentration with water containing an emulsifier concentration of 1000 ppm. To produce further test concentrations, the formulation is diluted with emulsifier-containing water. If the addition of ammonium salts or/and penetrants is required, these are each added in a concentration of 1000 ppm to the formulation solution.
Cabbage leaves (Brassica oleracea) are sprayed with an active ingredient formulation of the desired concentration and populated with larvae of the mustard beetle (Phaedon cochleariae).
After the desired time, the kill in % is determined. 100% means that all the beetle larvae have been killed; 0% means that no beetle larvae have been killed.

The test system of test [2] is green peach aphid (Myzus persicae). The test is described as follows: Comparative Myzus persicae spray test (MYZUPE). The note with it: 144 h, 6 dat, read-out: % efficacy. The method, then:
as §1, §2, §3
Bell pepper plants (Capsicum annuum) severely infested with the green peach aphid (Myzus persicae) are treated by spraying with the active ingredient formulation in the desired concentration.
After the desired time, the kill in % is determined. 100% means that all the animals have been killed; 0% means that no animals have been killed.

Test [3] has as its system caterpillars of the cotton bollworm (Heliothis armigera). In words: Comparative Heliothis armigera spray test (HELIAR). The note with it: Helicoverpa armigera, 168 h, 7 dat, read-out: % efficacy. The method, then:
as §1, §2, §3
Cotton plants (Gossypium hirsutum) are sprayed with an active compound formulation of the desired concentration and, after drying, populated with caterpillars of the cotton bollworm (Heliothis armigera).
(§4) After the desired time, the kill in % is determined. 100% means that all caterpillars have been killed; 0% means that none of the caterpillars have been killed.

Test [4] relates to green peach aphid (Myzus persicae). The test is described as follows: Comparative Myzus persicae drench test (MYZUPE D). The note with it: soil, 240 h, 10 dat, read-out: % efficacy. As to the method: (§5) Solvent: 7 parts by weight of dimethylformamide
(§6) Emulsifier: 2 parts by weight of alkylaryl polyglycol ether
(§7) To produce a suitable active ingredient formulation, 1 part by weight of active ingredient is mixed with the specified amounts of solvent and emulsifier, and the concentrate is diluted with water to the desired concentration, it being necessary to take into account the volume of soil which is drenched. It should be ensured that a concentration of 40 ppm of emulsifier in the soil is not exceeded. To produce further test concentrations, water is used for dilution.
Savoy cabbage (Brassica oleracea) in pots with soil and infested by all stages of the green peach aphid (Myzus persicae) is watered with an active ingredient formulation of the desired concentration.
After the desired period of time, the efficacy in % is determined. 100% means that all the aphids have been killed; 0% means that no aphids have been killed.

Test [5] concerns caterpillars of the armyworm (Spodoptera frugiperda). The test is described as follows: Comparative Spodoptera frugiperda drench test (SPODFR D). Particulars: soil, 336 h, 14 dat, read-out: % efficacy. As to the method:
as §5, §6, §7
Maize plants (Zea mays) in pots of soil are watered with an active ingredient formulation of the desired concentration and infected with caterpillars of the armyworm (Spodoptera frugiperda).
as §4

Test [6] relates to L2 larvae of the banded cucumber beetle (Diabrotica balteata). The test is described as follows: Comparative Diabrotica balteata drench test (DIABBA D). The note with it: soil, 192 h, 8 dat, read-out: % efficacy. The method, then: as §5, §6, §7
In each case 5 maize corns (Zea mays) are sown into pots filled with earth, and the next day the pots are watered with the active compound preparation of the desired concentration. After one day, about 25 L2 larvae of the banded cucumber beetle (Diabrotica balteata) are added.
After 8 days, the efficacy in % is determined. 100% means that all 5 plants have germinated and grown; 0% means that none of the plants has emerged.

The subject of test [7] is caterpillars of the armyworm (Spodoptera frugiperda). The test is described as follows: Comparative Spodoptera frugiperda spray test (SPODFR). The note with it: 168 h, 7 dat, read-out: % efficacy. As to the method:
as §1, §2, §3
Cotton leaves (Gossypium hirsutum) are sprayed with an active ingredient formulation of the desired concentration and populated with caterpillars of the armyworm (Spodoptera frugiperda).
as §4

For test [8], the system named is larvae of the diamondback moth (Plutella xylostella). In words: Comparative Plutella xylostella spray test (PLUTMA). Particulars: 168 h, 7 dat, read-out: % efficacy. As to the method:
as §1, §2, §3
Cabbage leaves (Brassica oleracea) are sprayed with an active ingredient formulation of the desired concentration and infected with larvae of the diamondback moth (Plutella xylostella).
as §4

For test [9], the system named is green peach aphid (Myzus persicae). In words: Myzus persicae spray test. The note with it: foliar, 120 h, 100 g/ha, after 5 days, Chinese cabbage leaf discs, read-out: efficacy. As to the method: Solvent: 78 parts by weight of acetone • • 1.5 parts by weight of dimethylformamide
as §2
(§8) To produce a suitable active compound formulation, 1 part by weight of active compound is dissolved with the specified parts by weight of solvent and made up to the desired concentration with water containing an emulsifier concentration of 1000 ppm. To produce further test concentrations, the formulation is diluted with emulsifier-containing water.
Discs of Chinese cabbage leaves (Brassica pekinensis) infested by all stages of the green peach aphid (Myzus persicae) are sprayed with an active compound formulation of the desired concentration.
After 5 days, the efficacy in % is determined. 100% means that all the aphids have been killed; 0% means that no aphids have been killed.

Test [10] concerns larvae of the mustard beetle (Phaedon cochleariae). In words: Phaedon cochleariae spray test. The note with it: foliar, 168 h, 100 g/ha, after 7 days, Chinese cabbage leaf discs, read-out: efficacy. As to the method: (§9) Solvent: 78.0 parts by weight of acetone • • 1.5 parts by weight of dimethylformamide
as §2, §8
Discs of Chinese cabbage leaves (Brassica pekinensis) are sprayed with an active compound formulation of the desired concentration and, after drying, populated with larvae of the mustard beetle (Phaedon cochleariae).
After 7 days, the efficacy in % is determined. 100% means that all the beetle larvae have been killed; 0% means that no beetle larvae have been killed.

For test [11], the system named is caterpillars of the fall armyworm (Spodoptera frugiperda). In words: Spodoptera frugiperda spray test. Particulars: foliar, 168 h, 100 g/ha, after 7 days, maize leaf discs, read-out: efficacy. As to the method:
as §9, §2, §8
Leaf discs of maize (Zea mays) are sprayed with an active compound formulation of the desired concentration and, after drying, populated with caterpillars of the fall armyworm (Spodoptera frugiperda).
After 7 days, the efficacy in % is determined. 100% means that all the caterpillars have been killed; 0% means that no caterpillar has been killed.

In test [12] the test system is adult cat fleas (Ctenocephalides felis). In words: Ctenocephalides felis oral test. Particulars: 48 h, 100 ppm in citrated cattle blood, after 2 days, read-out: efficacy (kill). The method, then:
Solvent: dimethyl sulfoxide
To produce a suitable active compound formulation, 10 mg of active compound are mixed with 0.5 ml of dimethyl sulfoxide. Dilution with citrated cattle blood gives the desired concentration.
About 20 unfed adult cat fleas (Ctenocephalides felis) are placed into a chamber which is closed at the top and bottom with gauze. A metal cylinder whose bottom end is closed with parafilm is placed onto the chamber. The cylinder contains the blood/active compound formulation, which can be imbibed by the fleas through the parafilm membrane.
After 2 days, the kill in % is determined. 100% means that all of the fleas have been killed; 0% means that none of the fleas have been killed.

Test [13] deals with greenhouse red spider mite (Tetranychus urticae). The test is described as follows: Tetranychus urticae spray test, OP-resistant. The note with it: 20 g/ha, after 6 days, bean leaf discs. The method, then:
as §9, §2, §8
Discs of bean leaves (Phaseolus vulgaris) infested with all stages of the greenhouse red spider mite (Tetranychus urticae) are sprayed with an active compound formulation of the desired concentration.
After 6 days, the efficacy in % is determined. 100% means that all the spider mites have been killed; 0% means that no spider mites have been killed.

For the compound `CCS(=O)(=O)c1c(-c2nc3cc(C(F)(F)F)cnc3n2C)nc2cc(C3CC3)ccn12` [known from WO 2016/162318, reference compound], the Emax at 0.8 ppm worked out at 0% in test [1] (0.8 ppm), 0% in test [2], 0% in [4] and 30% in test [6] (0.8 ppm). For the same compound, the Emax at 4 ppm in [1] (4 ppm) is 60%; in test [6] (4 ppm), 70%. Moreover, the Emax at 0.16 ppm in test [3] worked out at 10%; in [5], 40%; in test [7], 65%; in [8], 45%.

As for `CCS(=O)(=O)c1c(-c2nc3cc(C(F)(F)F)cnc3n2C)nc2cc(C(F)C3CC3)ccn12` (stereo not drawn) [Example I-22], the pest or weed control at 100 g/ha in test [9] was 90%; in test [10], 100%; in [11] it was 100%. Besides, in test [12], the pest or weed control at 100 ppm is 100%. In test [13], this compound registered an efficacy of 90%.
